From ChEMBL document CHEMBL5705884, “Breaching the DNA damage checkpoint via PF-00477736, a novel small-molecule inhibitor of checkpoint kinase 1” (Mol Cancer Ther, 2008)
Active and inactive are the calls of the source. The calls are words filed in the database; no cut-off is given here.

Legend:
[1] = molecular target: T1, Receptor-type tyrosine-protein kinase FLT3 (Homo sapiens, UniProt P36888); experiment: Inhibition of FLT3 (unknown origin)
T1 sequence (P36888 whole entry): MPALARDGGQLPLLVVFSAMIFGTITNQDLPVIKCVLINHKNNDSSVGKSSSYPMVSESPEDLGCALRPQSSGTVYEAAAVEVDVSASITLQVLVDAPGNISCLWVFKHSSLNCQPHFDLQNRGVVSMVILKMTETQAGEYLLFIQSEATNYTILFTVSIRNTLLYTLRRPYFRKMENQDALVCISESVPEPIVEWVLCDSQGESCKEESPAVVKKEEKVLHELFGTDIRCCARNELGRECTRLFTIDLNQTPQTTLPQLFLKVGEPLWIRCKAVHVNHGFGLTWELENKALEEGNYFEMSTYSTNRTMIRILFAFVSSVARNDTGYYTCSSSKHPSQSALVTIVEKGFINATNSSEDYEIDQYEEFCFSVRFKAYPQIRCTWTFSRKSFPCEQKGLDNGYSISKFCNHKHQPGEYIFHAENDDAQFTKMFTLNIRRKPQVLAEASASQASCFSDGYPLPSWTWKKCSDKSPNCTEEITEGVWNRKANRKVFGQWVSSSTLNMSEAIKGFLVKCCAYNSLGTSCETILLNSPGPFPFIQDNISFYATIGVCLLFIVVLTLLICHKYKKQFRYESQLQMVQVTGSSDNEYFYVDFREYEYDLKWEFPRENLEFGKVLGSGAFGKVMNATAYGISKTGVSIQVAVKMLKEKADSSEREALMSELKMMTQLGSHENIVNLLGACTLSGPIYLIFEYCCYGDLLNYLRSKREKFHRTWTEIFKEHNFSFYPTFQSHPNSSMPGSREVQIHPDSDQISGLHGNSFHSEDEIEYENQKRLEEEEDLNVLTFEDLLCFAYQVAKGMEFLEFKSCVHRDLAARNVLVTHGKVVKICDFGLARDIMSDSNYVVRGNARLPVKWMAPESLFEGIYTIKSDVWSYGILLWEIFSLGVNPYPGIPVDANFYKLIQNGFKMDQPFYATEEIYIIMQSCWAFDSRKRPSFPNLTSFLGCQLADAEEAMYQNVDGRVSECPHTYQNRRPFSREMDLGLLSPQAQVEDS

[2] = test system: HT-29; experiment: Induction of apoptosis in gemcitabine induced human HT-29 cells assessed as apoptotic cell death measured after 32 hrs by PI staining based flow cytometry analysis (reference value: 1.2%); type: functional
[3] = AUC (0 to infinity) in nu/nu mouse at 4 mg/kg, ip by LCMS analysis; type: ADME, organism-based; details: in vivo
[4] = molecular target: Proto-oncogene tyrosine-protein kinase receptor Ret (Homo sapiens, UniProt P07949); experiment: Inhibition of Ret (unknown origin)
[5] = test system: COLO 205; experiment: Antitumor activity against human COLO 205 cells xenografted in athymic nude mouse model assessed as tumor growth delay by measuring test to control tumor ratio at 12 mg/kg, ip administered once daily in presence of gemcitabine (Gemcitabine alone= 8%); type: functional
[6] = test system: PC-3; experiment: Antiproliferative activity against human PC-3 cells deficit of p53 expression assessed as inhibition of cell growth measured after 96 hrs by MTT assay; type: functional, cell-based; details: PC-3, 96 h
[7] = Cmax in nu/nu mouse at 40 mg/kg, ip by LCMS analysis; type: ADME, organism-based; details: in vivo
[8] = test system: COLO 205; experiment: Potentiation factor, ratio of IC50 for human COLO 205 cells to IC50 for human COLO 205 cells in presence of mytomicin-C; type: functional
[9] = Cmax in nu/nu mouse at 4 mg/kg, ip by LCMS analysis; type: ADME, organism-based; details: in vivo
[10] = AUC (0 to infinity) in nu/nu mouse at 20 mg/kg, ip by LCMS analysis; type: ADME, organism-based; details: in vivo
[11] = test system: COLO 205; experiment: Antitumor activity against human COLO 205 cells xenografted in athymic nude mouse model assessed as potentiated tumor growth inhibition at 7.5 mg/kg, ip administered twice daily in presence of gemcitabine relative to control; type: functional; details: read-out: TGI
[12] = test system: HT-29; experiment: Inhibition of gemcitabine induced cell cycle arrest in human HT-29 cells assessed as increase in G0-G1 cell population pretreated with gemcitabine followed by compound treatment and measured after 10 to 48 hrs by flow cytometry analysis; type: functional, cell-based; details: time 10-48 hrs
[13] = test system: HT-29; experiment: Inhibition of camptothecin induced DNA damage in human HT-29 cells assessed as increase in mitotic index by measuring histone H3 phosphorylation at S10 residue at 0.001 to 1 uM measured after 16 hrs presence of nocodazole by dot blot assay; type: functional, cell-based; details: HT-29, 16 h
[14] = test system: MDA-MB-231; experiment: Antiproliferative activity against human MDA-MB-231 cells deficit of p53 expression assessed as inhibition of cell growth measured after 96 hrs by MTT assay; type: functional, cell-based; details: MDA-MB-231, 96 h
[15] = test system: HT-29; experiment: Inhibition of cell cycle arrest in human HT-29 cells assessed as inhibition of gemcitabine induced S-phase arrest pretreated with gemcitabine followed by compound treatment and measured after 10 to 48 hrs by flow cytometry analysis; type: functional, cell-based; details: time 10-48 hrs
[16] = test system: HT-29; experiment: Potentiation factor, ratio of IC50 for human HT-29 cells to IC50 for human HT-29 cells in presence of carboplatin; type: functional
[17] = test system: COLO 205; experiment: Antitumor activity against human COLO 205 cells xenografted in athymic nude mouse model assessed as gross log cell kill at 20 mg/kg, ip administered once daily in presence of gemcitabine (Gemcitabine alone = 0.5%); type: functional
[18] = test system: COLO 205; experiment: Antitumor activity against human COLO 205 cells xenografted in athymic nude mouse model assessed as tumor growth inhibition at 24 mg/kg, ip administered twice daily in presence of gemcitabine (Gemcitabine alone= 58%); type: functional; details: read-out: TGI
[19] = Volume of distribution at steady state in Sprague-Dawley rat at 4 mg/kg, iv administered as bolus dose by LCMS analysis; type: ADME, organism-based; details: in vivo, read-out: Vdss
[20] = test system: COLO 205; experiment: Antitumor activity against human COLO 205 cells xenografted in athymic nude mouse model assessed as tumor growth inhibition at 7.5 mg/kg, ip administered once daily in presence of gemcitabine (Gemcitabine alone = 40%); type: functional; details: read-out: TGI
[21] = test system: HT-29; experiment: Potentiation of gemcitabine induced cytotoxicity in human HT-29 cells assessed as cell survival at 540 nM measured after 4 to 48 hrs by coulter counter method relative to gemcitabine alone; type: functional; details: time 4-48 hrs, read-out: Activity
[22] = test system: COLO 205; experiment: Antitumor activity against human COLO 205 cells xenografted in athymic nude mouse model assessed as potentiated tumor growth inhibition at 15 mg/kg, ip administered twice daily in presence of gemcitabine relative to control; type: functional; details: read-out: TGI
[23] = test system: CA46; experiment: Inhibition of camptothecin induced DNA damage in mutated human CA46 cells assessed as increase in mitotic index by measuring histone H3 phosphorylation at S10 residue at 0.001 to 1 uM measured after 16 hrs presence of nocodazole by dot blot assay; type: functional, cell-based; details: CA46, 16 h
[24] = molecular target: Cyclin-dependent kinase 1 (Homo sapiens, UniProt P06493); experiment: Binding affinity to CDK1 (unknown origin) assessed as inhibition constant
[25] = test system: PC-3; experiment: Potentiation factor, ratio of IC50 for human PC-3 cells to IC50 for human PC-3 cells in presence of doxorubicin; type: functional

Chain of Proto-oncogene tyrosine-protein kinase receptor Ret (P07949 whole entry): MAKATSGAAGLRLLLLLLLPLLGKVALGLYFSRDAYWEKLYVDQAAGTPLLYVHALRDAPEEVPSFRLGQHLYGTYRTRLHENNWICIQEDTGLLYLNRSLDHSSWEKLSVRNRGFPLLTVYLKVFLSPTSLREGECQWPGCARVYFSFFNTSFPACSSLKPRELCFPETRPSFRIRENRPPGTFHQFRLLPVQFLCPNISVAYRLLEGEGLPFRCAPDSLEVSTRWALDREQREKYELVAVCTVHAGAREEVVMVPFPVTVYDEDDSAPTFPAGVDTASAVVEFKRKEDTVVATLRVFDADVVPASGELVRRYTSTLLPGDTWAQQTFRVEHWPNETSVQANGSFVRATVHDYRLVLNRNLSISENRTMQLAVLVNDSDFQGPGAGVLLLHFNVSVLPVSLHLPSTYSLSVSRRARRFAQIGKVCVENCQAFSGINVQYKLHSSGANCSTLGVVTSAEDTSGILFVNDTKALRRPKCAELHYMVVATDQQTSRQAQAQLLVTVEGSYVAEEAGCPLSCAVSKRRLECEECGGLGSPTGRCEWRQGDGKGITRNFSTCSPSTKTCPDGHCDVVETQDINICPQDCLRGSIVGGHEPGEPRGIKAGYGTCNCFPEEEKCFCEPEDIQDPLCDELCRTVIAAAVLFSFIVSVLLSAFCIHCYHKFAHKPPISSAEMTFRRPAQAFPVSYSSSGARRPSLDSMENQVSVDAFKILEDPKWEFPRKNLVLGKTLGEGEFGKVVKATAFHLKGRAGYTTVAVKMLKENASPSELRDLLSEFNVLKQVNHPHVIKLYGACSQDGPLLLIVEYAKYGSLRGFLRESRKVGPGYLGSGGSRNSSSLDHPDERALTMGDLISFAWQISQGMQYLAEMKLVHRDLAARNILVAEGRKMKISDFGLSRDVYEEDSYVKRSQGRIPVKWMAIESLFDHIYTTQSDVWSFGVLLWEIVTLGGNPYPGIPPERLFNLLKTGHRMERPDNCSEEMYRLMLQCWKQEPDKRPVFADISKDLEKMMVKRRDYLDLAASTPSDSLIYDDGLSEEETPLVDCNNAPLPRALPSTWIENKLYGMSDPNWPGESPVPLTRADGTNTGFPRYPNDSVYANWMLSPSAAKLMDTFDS
Chain of Cyclin-dependent kinase 1 (P06493 whole entry): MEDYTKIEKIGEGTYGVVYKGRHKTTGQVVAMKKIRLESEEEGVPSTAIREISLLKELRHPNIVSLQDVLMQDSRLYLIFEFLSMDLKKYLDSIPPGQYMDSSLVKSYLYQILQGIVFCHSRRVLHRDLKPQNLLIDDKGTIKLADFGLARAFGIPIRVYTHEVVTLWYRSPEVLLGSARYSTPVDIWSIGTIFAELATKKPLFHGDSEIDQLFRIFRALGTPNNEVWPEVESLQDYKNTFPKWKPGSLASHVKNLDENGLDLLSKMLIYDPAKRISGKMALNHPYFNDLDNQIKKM

For `Cn1cc(-c2[nH]c3cc(NC(=O)[C@H](N)C4CCCCC4)cc4c3c2C=NNC4=O)cn1`, the IC50 [1] was 51 nM, the Activity [2] was 18.1% and the AUC(0-inf) [3] was 490 ng·h/mL. It also gave an IC50 [4] of 80 nM, a T/C [5] of 8.5 and an IC50 [6] of 1600 nM. It also gave a Cmax [7] of 6780 ng/mL, a PF50 [8] of 5.3 and a Cmax [9] of 270 ng/mL. The AUC(0-inf) [10] was 2670 ng·h/mL, the inhibition in vivo at 7.5 mg/kg [11] was 50% and the inhibition [12] was “Active”. For the same compound, the EC50 [13] was 42 nM, the IC50 [14] was 1400 nM and the inhibition [15] was “Active”. It also gave a PF50 [16] of 3, an LCK [17] of 0.75 and an inhibition in vivo at 24 mg/kg [18] of 81%. It also gave a Vd [19] of 0.7 L/kg, an inhibition in vivo at 7.5 mg/kg [20] of 54% and a viability at 0.54 µM [21] of 69%. For the same compound, the inhibition in vivo at 15 mg/kg [22] was 44%, the EC50 [23] was 45 nM and the Ki [24] was 9.9 nM. For the same compound, the PF50 [25] was 1.5.
